Patent US4564619A, “Carbostyril derivative” (Otsuka Pharmaceutical Co., Ltd., priority 1982, dated 1986)

Tests used:
[1] = test system: collagen-induced aggregation in rabbit platelets; test: Inhibition of collagen-induced platelet aggregation in rabbit platelet rich plasma; format: cell-based; settings: Oryctolagus cuniculus, read-out: Inhibition rate of collagen-induced aggregation; for inhibition at 100 µM (stock): Concentration of the test compound solution 10^-4 mole; for inhibition at 10 µM (stock): Concentration of the test compound solution 10^-5 mole
Summary of the method: (§1)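 Citrated rabbit PRP adjusted to 600,000 platelets/μl with PPP, preincubated with test compound 1 min at 37° C, then challenged with ADP (solution prepared at 7.5×10^-5 M) or collagen (solution at 200 μg/ml). Aggregation followed by light transmittance; % inhibition relative to control aggregation rate.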

[2] = test system: ADP-induced aggregation in rabbit platelets; test: Inhibition of ADP-induced platelet aggregation in rabbit platelet rich plasma; format: cell-based; settings: Oryctolagus cuniculus, read-out: Inhibition rate of ADP-induced aggregation; for inhibition at 100 µM (stock): Concentration of the test compound solution 10^-4 mole; for inhibition at 10 µM (stock): Concentration of the test compound solution 10^-5 mole
Summary of the method: as §1

[3] = Change of blood pressure, intravenous administration, anesthetized dog; format: in vivo; design: unit not given here; settings: femoral artery
Summary of the method: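 Pentobarbital-anesthetized (30 mg/kg i.v.), heparinized, thoracotomized dogs of either sex, 8-13 kg, under forced breathing; compound given via femoral vein. Coronary sinus outflow measured by electromagnetic flowmeter in an extracorporeal venous circuit to the carotid; blood pressure recorded from femoral artery.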

coronary artery = test: Increased amount of the blood flow in coronary artery, intravenous administration, anesthetized dog; format: in vivo
Protocol: The change of blood flow in coronary artery and the change of blood pressure were measured by a method according to Yakura et al., [Japan Journal of Pharmacology, Vol. 57, pages 380-391 (1961)] and according to Taira, et al. [Clin. Exp. Pharmacol. Physiol., Vol. 6, pages 301-316, (1976)].
An adult bastard dog of either sex weighing 8-13 kg was anesthetized with sodium pentobarbital at the rate of 30 mg/kg by intraveneous administration, then the dog was fixed in supination and was theracotomized under a condition of forced breathing. After another intraveneous administration of sodium heparin at the rate of 500 U/kg, 100 U/kg per hour, the dog was subjected to the following experiments.
(2) Intraveneous administration
Morawitz's cannula was cannulated to the coronary sinus venosus through the auricula dextra cordis, and the blood in vein was circulated to the right carotid. The blood flow was measured by an electromagnetic blood flow meter equipped with a blood flow observation probe in the extracorporeal circulation path of the vein. The systolic force was measured by a systolometer (pick-up) placed at the left ventricle of heart, the blood pressure was measured from the femoral artery, and the heart rate was measured from the pulse. A compound to be tested was administered through the cannula being cannulated in femoral vein. The increased amount of the blood flow in coronary artery after the administration of the test compound is shown in Table 4, also the change of blood pressure is shown in Table 5.

| Compound | inhibition at 100 µM (stock) [1] [%] | inhibition at 10 µM (stock) [1] [%] | inhibition at 100 µM (stock) [2] [%] | inhibition at 10 µM (stock) [2] [%] | Change of blood pressure ([3]; 10 micrograms/kg) | Change of blood pressure ([3]; 30 micrograms/kg) | Change of blood pressure ([3]; 100 micrograms/kg) | Change of blood pressure ([3]; 300 micrograms/kg) | Increased amount of the blood flow in coronary artery (coronary artery; 100 micrograms/kg) [mL/min] | Increased amount of the blood flow in coronary artery (coronary artery; 300 micrograms/kg) [mL/min] | Increased amount of the blood flow in coronary artery (coronary artery; 1000 micrograms/kg) [mL/min] | Increased amount of the blood flow in coronary artery (coronary artery; 10 micrograms/kg) [mL/min] | Increased amount of the blood flow in coronary artery (coronary artery; 30 micrograms/kg) [mL/min] | Change of blood pressure ([3]; 3 micrograms/kg) | Increased amount of the blood flow in coronary artery (coronary artery; 3 micrograms/kg) [mL/min] |
| --- | --- | --- | --- | --- | --- | --- | --- | --- | --- | --- | --- | --- | --- | --- | --- |
| COC(=O)C1=C(C)NC(C)=C(C(=O)OCCN(C(=O)CCCOc2ccc3c(c2)CCC(=O)N3)C2CCCCC2)C1c1ccccc1[N+](=O)[O-] (stereo not drawn) [Compound 32, N--{2-[1,4-Dihydro-2,6-dimethyl-5-methoxycarbonyl-4-(2-nitrophenyl)pyridin-3-carboxy]ethyl}-N--cyclohexyl-4-(3,4-dihydro-6-carbostyriloxy)-butyramide] | 100 | 34 | 98 | 25 | -1 | -6 | -8 | -19 | 16 | 55 | 97 | – | – | – | – |
| COC(=O)C1=C(C)NC(C)=C(C(=O)OCCCOc2ccc3[nH]c(=O)ccc3c2)C1c1cccc([N+](=O)[O-])c1 (stereo not drawn) [Compound 8, 6-{3-[2,6-Dimethyl-5-methoxycarbonyl-4-(3-nitrophenyl)-1,4-dihydropyridin-3-carboxy]-propoxy}carbostyril] | 99 | 27 | 76 | 10 | – | -3 | -16 | -33 | 12 | 56 | – | 1 | 2 | – | – |
| COC(=O)C1=C(C)NC(C)=C(C(=O)OCCOc2ccc3[nH]c(=O)ccc3c2)C1c1cccc([N+](=O)[O-])c1 (stereo not drawn) [Compound 10, 6-{2-[2,6-Dimethyl-5-methoxycarbonyl-4-(3-nitrophenyl)-1,4-dihydropyridin-3-carboxy]-ethoxy}carbostyril] | 100 | 50 | 100 | 27 | -5 | -9 | -13 | -34 | 23 | 43 | – | 2 | 5 | – | – |
| COC(=O)C1=C(C)NC(C)=C(C(=O)OCCCOc2cccc3c2CCC(=O)N3)C1c1cccc([N+](=O)[O-])c1 (stereo not drawn) [Compound 4, 5-{3-[2,6-Dimethyl-5-methoxycarbonyl-4-(3-nitrophenyl)-1,4-dihydropyridin-3-carboxy]-propoxy}-3,4-dihydrocarbostyril] | 23 | 11 | 16 | 4 | -15 | -25 | -34 | -51 | 62 | 90 | – | 8 | 22 | -5 | 3 |
